Read-outs that look alike come from different tables or passages of the source.
Experiments:
[1] = test system: human chronic myelocytic leukemia K562 cells; test: Growth inhibition test (MTS); type: cell-based; conditions: 72 hours
Method: (§1) Ten thousand cells of human chronic myelocytic leukemia K562 were inoculated into each well of a 96-well microplate (manufactured by Corning Corp.) using Iscove's MDM medium (culture medium) containing 10% fetal calf serum (FCS). The same day, a dimethyl sulfoxide (DMSO) solution of each test compound prepared in a concentration of 10 mmol/L was further diluted with DMSO to the desired concentrations (0.1, 0.5, 1, 2.5, 5 and 10 micromol/L), and the diluted solution was added to each well. The individual wells were further cultured in 5% carbon dioxide at 37° C. for 72 hours. After completion of the culture, 10 μl MTS (3-(4,5-Dimethyl-2-thiazolyl)-5-(carboxymethoxyphenyl)-2-(4-sulfophenyl)-2H-tetrazolium, inner salt assay (CellTiter96® AQueous One Solution Cell Proliferation Assay, Promega) was added to each well, and culturing was performed in 5% carbon dioxide at 37° C. for 2 hours. Using a microplate spectrophotometer (Synergy 2 multi-mode microplate reader (BioTek)), the absorbance of each well was measured at 490 nm. The value for cells not incorporated with a test compound was designated as 100%. By comparing these values with the absorbance difference obtained at the well in which each test compound was added, the cell viability (% viability) after treatment with the test compound was calculated.

[2] = test system: human colorectal adenocarcinoma SW480 cells; test: Growth inhibition test (MTS); type: cell-based; conditions: 72 hours
Method: as §1, with “Two” for “Ten”, “colorectal adenocarcinoma SW480” for “chronic myelocytic leukemia K562”, “Corp.), and” for “Corp.)”, “DMEM/Ham's F121:1” for “Iscove's MDM”, “5%” for “10%”

[3] = test system: human chronic myelogenous leukemia MEG-01 cells; test: Growth inhibition test (MTS); type: cell-based; conditions: MEG01; 72 hours
Method: as §1, with “myelogenous” for “myelocytic”, “MEG-01” for “K562”, “RPMI 8226” for “Iscove's MDM”

[4] = test system: human acute myeloid leukemia MOLM-13 cells; test: Growth inhibition test (MTS); type: cell-based; conditions: MOLM13, 72 hours, read-out: Cytotoxicity in MTS assay (ED50)
Method: as §1, with “acute myeloid” for “human chronic myelocytic”, “MOLM-13” for “K562”, “RPMI 8226” for “Iscove's MDM”

[5] = test system: human myelomonocytic, biphenotypic leukemia MV4-11 cells; test: Growth inhibition test (MTS); type: cell-based; conditions: MV-4-11, 72 hours, read-out: Cytotoxicity in MTS assay (ED50)
Method: as §1, with “myelomonocytic, biphenotypic” for “chronic myelocytic”, “MV4-11” for “K562”

[6] = target: PIM1 (Homo sapiens, UniProt P11309); test: Radiometric kinase assay (HotSpot); conditions: for Selectivity for Pim-1 over CK2α: ratio of IC50 values
Sequence of PIM1 (P11309 whole entry): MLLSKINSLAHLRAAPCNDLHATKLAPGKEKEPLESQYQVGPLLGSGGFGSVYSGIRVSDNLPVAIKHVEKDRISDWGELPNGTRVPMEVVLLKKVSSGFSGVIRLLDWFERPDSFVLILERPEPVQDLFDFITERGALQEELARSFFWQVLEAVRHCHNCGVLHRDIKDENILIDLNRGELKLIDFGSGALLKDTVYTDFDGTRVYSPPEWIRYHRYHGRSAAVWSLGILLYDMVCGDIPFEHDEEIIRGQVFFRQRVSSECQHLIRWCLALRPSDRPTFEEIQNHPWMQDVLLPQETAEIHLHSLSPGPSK

[7] = read-out: Inhibitory activity (IC50 in nM) in radiometric cell free assay, Pim-1, ATP 1 μM, peptide 5 μM

IC50 [6] [nM]	SMILES	Cytotoxicity in MTS assay (ED50) [1] [nM]	Cytotoxicity in MTS assay (ED50) [2] [nM]	Cytotoxicity in MTS assay (ED50) [3] [nM]	IC50 ([4]; Homo sapiens, MOLM-13) [nM]	IC50 ([5]; Homo sapiens, MV4-11) [nM]	Selectivity for Pim-1 over CK2α [6]	IC50 [4] [nM]	IC50 [5] [nM]	IC50 [6, 7] [nM]
23.1	Brc1c(Br)c(Br)c2[nH]c(NCCN3CCCCC3)nc2c1Br [Compound 13, 4,5,6,7-tetrabromo-N-(2-(piperidin-1-yl)ethyl)-1H-benzo[d]imidazol-2-amine]			4370	2180	3160	98.2			
43.8	Brc1c(Br)c(Br)c2[nH]c(NCCN3CCCC3)nc2c1Br [Compound 14, 4,5,6,7-tetrabromo-N-(2-(pyrrolidin-1-yl)ethyl)-1H-benzo[d]imidazol-2-amine]			3350	1450	1290	19.0			
67.7	Brc1c(Br)c(Br)c2[nH]c(NCCN3CCOCC3)nc2c1Br [Compound 16, 4,5,6,7-tetrabromo-N-(2-morpholinoethyl)-1H-benzo[d]imidazol-2-amine]				4660	2170	101.6			
66.1	CN1CCN(c2nc3c(Br)c(Br)c(Br)c(Br)c3[nH]2)CC1 [Compound 21, 4,5,6,7-tetrabromo-2-(4-methylpiperazin-1-yl)-1H-benzo[d]imidazole]				1610	3780	27.6			
	Brc1c(Br)c(Br)c2c(Br)n[nH]c2c1Br [Compound K64, reference compound]	>10000	9130	>10000			2.1	>10000	>10000	308
	CN(C)c1nc2c(Br)c(Br)c(Br)c(Br)c2n1CC(=O)O [Compound K66, reference compound]	>10000	>10000	>10000			1.1	>10000	>10000	194
	CN(C)c1nc2c(Br)c(Br)c(Br)c(Br)c2[nH]1 [DMAT, reference compound]	>10000		8910					3150	64.6
	Brc1c(Br)c(Br)c2[nH]nnc2c1Br [TBB, reference compound]	>10000	>10000	>10000				>10000	>10000	1840
	Brc1c(Br)c(Br)c2[nH]cnc2c1Br [TBI, reference compound]	>10000	7210	>10000				9720	>10000	1670

SMILES	IC50 [6] [nM]	Cytotoxicity in MTS assay (ED50) [1] [nM]	Cytotoxicity in MTS assay (ED50) [2] [nM]	Cytotoxicity in MTS assay (ED50) [3] [nM]	IC50 ([4]; Homo sapiens, MOLM-13) [nM]	IC50 ([5]; Homo sapiens, MV4-11) [nM]	Selectivity for Pim-1 over CK2α [6]	IC50 [4] [nM]	IC50 [5] [nM]	IC50 [6, 7] [nM]
NCCCNc1nc2c(Br)c(Br)c(Br)c(Br)c2[nH]1 [Compound 11, N-(3-aminopropyl)-4,5,6,7-tetrabromo-1H-benzo[d]imidazol-2-amine]	4.8	7480	3460	7850	1370	1780	211.7			
Brc1c(Br)c(Br)c2[nH]c(N3CCNCC3)nc2c1Br [Compound 20, 4,5,6,7-tetrabromo-2-(piperazin-1-yl)-1H-benzo[d]imidazole]	76.9	7250	4910	4490	1590	790	1.7			
